Data taken from ChEMBL document CHEMBL2046425, “Neamphamide B, new cyclic depsipeptide, as an anti-dormant mycobacterial substance from a Japanese marine sponge of Neamphius sp” (2012).
In brackets after ≈: the same amount, converted by molar mass.

Columns and labels:
[1] = tested on: Mycolicibacterium smegmatis; assay: Antimicrobial activity against Mycobacterium smegmatis under aerobic condition for 36 hrs by MTT assay; format: functional
[2] = tested on: Mycolicibacterium smegmatis; assay: Antimicrobial activity against Mycobacterium smegmatis under dormancy-inducing hypoxic condition for 96 hrs by MTT assay; format: functional

## COC(c1ccc(O)cc1)C1NC(=O)[C@H](CCC(N)=O)N(C)C(=O)[C@H](CC(C)C)NC(=O)[C@@H](CCCNC(=N)N)NC(=O)[C@@H]([C@@H](C)O)NC(=O)[C@H](NC(=O)C(NC(=O)[C@H](O)[C@H](O)[C@H](CCCNC(=N)N)NC(=O)[C@@H](CC(N)=O)NC(=O)C(C)C(O)C(C)CC(C)C)C(C)C(C)C(N)=O)[C@@H](C)OC(=O)[C@@H]2CCCCN2C1=O (some centres not stated) [NEAMPHAMIDE B]
[1]
  MIC: 1.56 µg/mL (≈ 0.991 µM)
[2]
  MIC: 1.56 µg/mL (≈ 0.991 µM)
